Assay [1] concerns pERK1/2(THR202/TYR204) level in SW620 cell line. Description: KRAS G12V pERK assay in SW620 cells (HTRF). The class given is cell-based. In a few lines: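 SW620 cells were treated for 2 h with a 10-point dilution series (final 0–10 μM) after overnight seeding. Lysates were then incubated overnight at room temperature with Eu3+-cryptate and acceptor anti-phospho-ERK1/2 antibodies, and HTRF was read at 655 nm. IC50 was fitted from percent inhibition versus log concentration.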
A general note: Time-resolved FRET reads energy transfer from a long-lived donor to a nearby acceptor.

The target in assay [2] is GST-tagged GDP-loaded KRAS G12D (amin acids 1-188) (Homo sapiens, UniProt P01116, G12D). Briefly: KRAS G12D probe displacement assay (TR-FRET). The class given is binding. As to conditions: Table 5; KRAS G12D 0.5 nM, biotinylated probe 2 4 nM. The procedure:
Plates are incubated at 24° C. for 1 hr.

The subject of assay [3] is pERK1/2(THR202/TYR204) level in AsPC-1 cell line. Briefly: KRAS G12D pERK assay in AsPC-1 cells (HTRF). The class given is cell-based. The procedure: AsPC-1 cell line was used in this study. Cells were maintained in RPMI-1640 supplemented with 10% fetal bovine serum (Thermo Fisher), 50 units/ml, penicillin and streptomycin (Thermo Fisher) and kept at 37° C. in a humidified atmosphere of 5% CO2 in air. Cells were reinstated from frozen stocks that were laid down within 30 passages from the original cells purchased. 30000 cells per well were seeded into a 96-well plate and incubated overnight. Cells were treated with a 10-point dilution series. The final compound concentration is from 0 to 10 μM. After 2 h compound treatment, cells were lysed, and the pERK1/2(THR202/TYR204) level in the cell lysates was detected by HTRF kit (Cisbio). In brief, a total of 16 μL of cell lysate from each well of a 96-well plate was transferred to a 384-well white assay plate. Lysate from each well was incubated with 2 μL of Eu3+-cryptate (donor) labeled anti-phospho-ERK1/2 and 2 μL of D2 (acceptor) labeled anti-phospho-ERK1/2 antibodies (Cisbio) overnight in dark at room temperature. When the donor and acceptor are in close proximity, excitation of the donor with laser triggers a Fluorescence Resonance Energy Transfer (FRET) towards the acceptor, which in turn fluoresces at 655 nm wavelength. FRET signals were measured using a PHERAstar FSX reader (BMG Labtech). IC50 determination was performed by fitting the curve of percent inhibition versus the log of the inhibitor concentration using Dotmatics.

Assay [4] addresses GST-tagged GDP-loaded KRAS G12V (amino acids 1-169) (Homo sapiens, UniProt P01116, G12V). Description: KRAS G12V probe displacement assay (TR-FRET). The settings on record: Table 4; KRAS G12V 2 nM, biotinylated probe 2 2.5 nM. Format: binding. The procedure:
Plates are incubated at 24 °C for 1 hr. […] After 1 hr incubation at 24° C.

The mark [5] stands for this setting: Homo sapiens, SW-620, Table 4, 2 hrs compound treatment.
Setting [6] is: Homo sapiens, ASPC1, Table 5, 2 h compound treatment.

From patent publication US20240262848A1, “HETEROCYCLIC COMPOUNDS, COMPOSITIONS THEREOF, AND METHODS OF TREATMENT THEREWITH” (BeiGene, Ltd., priority 2022, published 2024) come the findings set out here.

Sequence of GST-tagged GDP-loaded KRAS G12D (amin acids 1-188) (P01116 1-188 isoform P01116-2 G12D): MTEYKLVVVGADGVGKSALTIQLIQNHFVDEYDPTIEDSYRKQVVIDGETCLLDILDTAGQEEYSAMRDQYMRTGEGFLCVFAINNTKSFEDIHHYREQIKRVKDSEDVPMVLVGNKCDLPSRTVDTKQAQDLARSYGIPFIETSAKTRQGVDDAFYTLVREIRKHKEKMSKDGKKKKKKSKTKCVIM
Sequence of GST-tagged GDP-loaded KRAS G12V (amino acids 1-169) (P01116 1-169 isoform P01116-2 G12V): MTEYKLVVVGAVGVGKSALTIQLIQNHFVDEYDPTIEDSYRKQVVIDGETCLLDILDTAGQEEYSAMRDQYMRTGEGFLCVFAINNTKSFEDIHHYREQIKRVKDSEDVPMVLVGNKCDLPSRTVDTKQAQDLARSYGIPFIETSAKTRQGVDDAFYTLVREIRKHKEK

Broadly, the IC50 is the concentration at which inhibition is half-maximal. High values mean lower potency, low ones higher potency. Regarding `CN1c2nc(OC[C@@]34CCCN3C[C@H](F)C4)nc3c(F)c(-c4cc(N)cc(Cl)c4C(F)(F)F)nc(c23)OC[C@@H]2COC[C@H]21` (single isomer, unassigned) [Example 68 Isomer 2], the IC50 was determined as 1.4 nM in assay [1] (setting [5]), 0.14 nM in assay [2], 6.9 nM in assay [3] (setting [6]) and 0.51 nM in assay [4].
Taken in the same sequence, the figures for `CN1CCCOc2cc(-c3ccc(F)c4sc(N)c(C#N)c34)c(F)c3nc(OC[C@@]45CCCN4C[C@H](F)C5)nc1c23` [Example 2, 2-amino-7-fluoro-4-(11-fluoro-2-(((2R,7aS)-2-fluorotetrahydro-1H-pyrrolizin-7a(5H)-yl)methoxy)-4-methyl-4.5,6,7-tetrahydro-[1,5]oxazocino[4,3,2-de]quinazolin-10-yl)benzo[b]thiophene-3-carbonitrile] were 255 nM, 6.2 nM, 594 nM and 3.6 nM.
Taken in the same sequence, the figures for `C#Cc1c(F)ccc2cc(O)cc(-c3nc4c5c(nc(OC[C@@]67CCCN6C[C@H](F)C7)nc5c3F)N(C)CCCO4)c12` [Example 10, 5-ethynyl-6-fluoro-4-(4-fluoro-2-(((2R,7aS)-2-fluorotetrahydro-1H-pyrrolizin-7a(5H)-yl)methoxy)-11-methyl-8,9,10,11-tetrahydro-7-oxa-1,3,6,11-tetraazacycloocta[de]naphthalen-5-yl)naphthalen-2-ol] were 103 nM, 1.1 nM, 123 nM and 1.4 nM.
As for `CN1c2nc(OC[C@@]34CCCN3C[C@H](F)C4)nc3c(F)c(-c4cc(N)cc(Cl)c4C(F)(F)F)nc(c23)OCCC12COC2` [Example 30, 3-chloro-5-(4-fluoro-2-(((2R,7aS)-2-fluorotetrahydro-1H-pyrrolizin-7a(5H)-yl)methoxy)-11-methyl-8,9-dihydro-11H-7-oxa-1,3,6,11-tetraazaspiro[cycloocta[de]naphthalene-10,3′-oxetan]-1(11a), 2,3a, 3a^1(6a), 5-pentaen-5-yl)-4-(trifluoromethyl)aniline], the IC50 in assay [1] (Table 4, 2 hrs compound treatment) was found to be 13 nM; in assay [2], 0.31 nM; in assay [3] (Table 5, 2 h compound treatment) it was 11 nM; in assay [4], 0.63 nM.
On to `CN1c2nc(OC[C@@]34CCCN3C[C@H](F)C4)nc3c(F)c(-c4cc(N)cc(Cl)c4C(F)(F)F)nc(c23)OCCC12CC2` [Example 31, 3-chloro-5-(4-fluoro-2-(((2R,7aS)-2-fluorotetrahydro-1H-pyrrolizin-7a(5H)-yl)methoxy)-11-methyl-8,9-dihydro-11H-7-oxa-1,3,6,11-tetraazaspiro[cycloocta[de]naphthalene-10,1′-cyclopropan]-1(11a), 2,3a, 4,6-pentaen-5-yl)-4 (trifluoromethyl)aniline], for which the IC50 amounted to 32 nM in assay [1] (setting [5]), 0.43 nM in assay [2], 40 nM in assay [3] (setting [6]) and 0.51 nM in assay [4].
Taken in the same sequence, the figures for `C[C@@H]1C[C@H](C)Oc2nc(-c3cc(N)cc(Cl)c3C(F)(F)F)c(F)c3nc(OC[C@@]45CCCN4C[C@H](F)C5)nc(c23)N1C` [Example 34, 3-chloro-5-((8S,10R)-4-fluoro-2-(((2R,7aS)-2-fluorotetrahydro-1H-pyrrolizin-7a(5H)-yl)methoxy)-8,10,11-trimethyl-8,9,10,11-tetrahydro-7-oxa-1,3,6,11-tetraazacycloocta[de]naphthalen-5-yl)-4-(trifluoromethyl)aniline] were 13 nM, 0.59 nM, 25 nM and 0.59 nM.
Taken in the same sequence, the figures for `CCN1c2nc(OC[C@@]34CCCN3C[C@H](F)C4)nc3c(F)c(-c4cc(N)cc(Cl)c4C(F)(F)F)nc(c23)OCCC12COC2` [Example 35, 3-chloro-5-(11-ethyl-4-fluoro-2-(((2R,7aS)-2-fluorotetrahydro-1H-pyrrolizin-7a(5H)-yl)methoxy)-8,9-dihydro-11H-7-oxa-1,3,6,11-tetraazaspiro[cycloocta[de]naphthalene-10,3′-oxetan]-1(11a), 2,3a, 3a^1(6a), 5-pentaen-5-yl)-4-(trifluoromethyl)aniline] were 26 nM, 0.33 nM, 22 nM and 0.47 nM.
As to `CN1c2nc(OC[C@@]34CCCN3C[C@H](F)C4)nc3c(F)c(-c4cc(N)cc(Cl)c4C(F)(F)F)nc(c23)O[C@H]2COCC[C@@H]21` [Example 49, 3-chloro-5-((7aR,11aS)-4-fluoro-2-(((2R,7aS)-2-fluorotetrahydro-1H-pyrrolizin-7a(5H)-yl)methoxy)-12-methyl-7a, 8,10,11,11a, 12-hexahydro-7,9-dioxa-1,3,6,12-tetraazapleiaden-5-yl)-4-(trifluoromethyl)aniline], the IC50 was found to be 8.4 nM in assay [1] (setting [5]), 0.27 nM in assay [2], 7.6 nM in assay [3] (setting [6]) and 0.54 nM in assay [4].
On the same counts, the results for `CN1c2nc(OC[C@@]34CCCN3C[C@H](F)C4)nc3c(F)c(-c4cc(N)cc(Cl)c4C(F)(F)F)nc(c23)O[C@@H]2CCOC[C@H]21` [Example 51, 3-chloro-5-((7aR,11aR)-4-fluoro-2-(((2R,7aS)-2-fluorotetrahydro-1H-pyrrolizin-7a(5H)-yl)methoxy)-12-methyl-7a, 8,11a, 12-tetrahydro-9H, 11H-7,10-dioxa-1,3,6,12-tetraazapleiaden-5-yl)-4-(trifluoromethyl)aniline] are 9.3 nM, 0.28 nM, 30 nM and 0.5 nM.
As for `Cc1cc(N)cc(-c2nc3c4c(nc(OC[C@@]56CCCN5C[C@H](F)C6)nc4c2F)N(C)[C@@H]2COCC[C@H]2O3)c1C(F)(F)F` [Example 61, 3-((7aR,11aR)-4-fluoro-2-(((2R,7aS)-2-fluorotetrahydro-1H-pyrrolizin-7a(5H)-yl)methoxy)-12-methyl-7a, 8,11a, 12-tetrahydro-9H, 11H-7,10-dioxa-1,3,6,12-tetraazapleiaden-5-yl)-5-methyl-4-(trifluoromethyl)aniline], the IC50 in assay [1] (setting [5]) was 22 nM; in assay [2], 0.57 nM; in assay [3] (setting [6]), 23 nM; in assay [4] it was 0.8 nM.
On the same counts, the results for `C=C1CN2CCC[C@@]2(COc2nc3c4c(nc(-c5cc(N)cc(Cl)c5C(F)(F)F)c(F)c4n2)O[C@H]2COCC[C@@H]2N3C)C1` [Example 62, 3-chloro-5-((7aR,11aS)-4-fluoro-12-methyl-2-(((S)-2-methylenetetrahydro-1H-pyrrolizin-7a(5H)-yl)methoxy)-7a, 8,10,11,11a, 12-hexahydro-7,9-dioxa-1,3,6,12-tetraazapleiaden-5-yl)-4-(trifluoromethyl)aniline] are 5.5 nM, 0.23 nM, 12 nM and 0.25 nM.
Take `CN1CCC[C@@]2(COc3nc4c5c(nc(-c6cc(N)cc(Cl)c6C(F)(F)F)c(F)c5n3)O[C@H]3COCC[C@@H]3N4C)CCC[C@@H]12` [Example 64, 3-chloro-5-((7aR,11aS)-4-fluoro-12-methyl-2-(((4aS,7aR)-1-methyloctahydro-4aH-cyclopenta[b]pyridin-4a-yl)methoxy)-7a, 8,10,11,11a, 12-hexahydro-7,9-dioxa-1,3,6,12-tetraazapleiaden-5-yl)-4-(trifluoromethyl)aniline]: the IC50 in assay [1] (setting [5]) worked out at 6.4 nM; in assay [2], 0.1 nM; in assay [3] (setting [6]), 7.9 nM; in assay [4], 0.25 nM.
On the same counts, the results for `Cc1cc(N)cc(-c2nc3c4c(nc(OC[C@]56CCC[C@H]5N(C)CCC6)nc4c2F)N(C)[C@H]2CCOC[C@@H]2O3)c1C(F)(F)F` [Example 65, 3-((7aR,11aS)-4-fluoro-12-methyl-2-(((4aS,7aR)-1-methyloctahydro-4aH-cyclopenta[b]pyridin-4a-yl)methoxy)-7a, 8,10,11,11a, 12-hexahydro-7,9-dioxa-1,3,6,12-tetraazapleiaden-5-yl)-5-methyl-4-(trifluoromethyl)aniline] are 8.9 nM, 0.27 nM, 17 nM and 0.47 nM.
